This data set has as its target ATP-dependent translocase ABCB1 (Mus musculus, UniProt P21447). As to the kind of experiment: TP_TRANSPORTER: increase in brain concentration in mdr1a(-/-) mouse. Type of data set: functional, organism-based. To be noted: in vivo.

These results are taken from ChEMBL document CHEMBL2074214, “Penetration of amitriptyline, but not of fluoxetine, into brain is enhanced in mice with blood-brain barrier deficiency due to mdr1a P-glycoprotein gene disruption” (Neuropsychopharmacology, 2000).

Sequence of ATP-dependent translocase ABCB1 (P21447 whole entry): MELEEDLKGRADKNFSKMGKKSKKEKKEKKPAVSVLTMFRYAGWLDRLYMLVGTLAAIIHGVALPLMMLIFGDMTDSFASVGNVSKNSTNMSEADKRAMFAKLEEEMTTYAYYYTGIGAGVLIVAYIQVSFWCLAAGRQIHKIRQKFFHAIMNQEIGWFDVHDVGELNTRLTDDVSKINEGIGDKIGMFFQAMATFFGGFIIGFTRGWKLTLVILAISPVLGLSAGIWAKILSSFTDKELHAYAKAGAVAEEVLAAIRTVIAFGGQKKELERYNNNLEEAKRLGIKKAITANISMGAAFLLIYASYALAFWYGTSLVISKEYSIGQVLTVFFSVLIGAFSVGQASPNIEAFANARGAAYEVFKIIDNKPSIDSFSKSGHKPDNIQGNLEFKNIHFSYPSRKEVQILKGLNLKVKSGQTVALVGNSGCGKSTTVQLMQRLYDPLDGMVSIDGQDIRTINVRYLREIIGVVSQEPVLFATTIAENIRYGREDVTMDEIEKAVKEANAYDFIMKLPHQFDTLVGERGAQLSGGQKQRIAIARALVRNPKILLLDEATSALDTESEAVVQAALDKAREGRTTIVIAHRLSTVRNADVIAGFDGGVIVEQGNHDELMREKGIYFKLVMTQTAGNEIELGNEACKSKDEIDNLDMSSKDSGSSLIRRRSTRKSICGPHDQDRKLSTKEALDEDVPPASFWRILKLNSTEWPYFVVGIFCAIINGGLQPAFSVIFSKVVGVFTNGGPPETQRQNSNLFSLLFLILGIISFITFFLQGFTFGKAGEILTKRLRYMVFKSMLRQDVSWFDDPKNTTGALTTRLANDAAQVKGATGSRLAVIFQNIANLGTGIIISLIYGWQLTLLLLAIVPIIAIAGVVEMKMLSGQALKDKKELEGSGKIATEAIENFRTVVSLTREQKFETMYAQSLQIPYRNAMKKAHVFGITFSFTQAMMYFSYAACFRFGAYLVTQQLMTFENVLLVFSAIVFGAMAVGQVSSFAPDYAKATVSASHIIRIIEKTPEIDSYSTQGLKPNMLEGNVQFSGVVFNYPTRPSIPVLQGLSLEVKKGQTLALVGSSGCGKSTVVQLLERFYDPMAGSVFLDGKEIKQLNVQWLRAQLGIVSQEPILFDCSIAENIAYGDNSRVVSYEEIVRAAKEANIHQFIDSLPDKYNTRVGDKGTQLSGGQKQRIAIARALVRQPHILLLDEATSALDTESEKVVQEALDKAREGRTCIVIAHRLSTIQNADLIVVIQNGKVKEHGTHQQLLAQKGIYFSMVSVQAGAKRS

As for `CN(C)CCC=C1c2ccccc2CCc2ccccc21` [AMITRIPTYLINE], the Activity entry is “substrate [+]”.
Turning to `CNCCC=C1c2ccccc2CCc2ccccc21` [NORTRIPTYLINE], the Activity result was “substrate [+]”.
